pEC50, pIC50: −log10 of the molar value.
What was measured:
[1] = biological target: T1, 11-beta-hydroxysteroid dehydrogenase type 2 (Mus musculus, UniProt P51661); assay: Inhibition of mouse 11beta-HSD2
T1 sequence (P51661 whole entry): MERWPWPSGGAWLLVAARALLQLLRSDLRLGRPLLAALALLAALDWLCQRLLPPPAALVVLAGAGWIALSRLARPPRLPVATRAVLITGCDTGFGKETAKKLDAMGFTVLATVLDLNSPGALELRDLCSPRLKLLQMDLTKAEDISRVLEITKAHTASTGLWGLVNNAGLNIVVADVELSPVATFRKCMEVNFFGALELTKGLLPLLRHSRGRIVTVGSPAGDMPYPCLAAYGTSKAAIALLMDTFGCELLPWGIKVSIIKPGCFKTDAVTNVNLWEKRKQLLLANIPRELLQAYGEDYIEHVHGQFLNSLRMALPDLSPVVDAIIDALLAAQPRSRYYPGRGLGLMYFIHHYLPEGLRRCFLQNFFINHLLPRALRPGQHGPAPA

[2] = biological target: T2, Nuclear receptor subfamily 1 group I member 2 (Homo sapiens, UniProt O75469); assay: Agonist activity at PXR; type: functional
T2 sequence (O75469 whole entry): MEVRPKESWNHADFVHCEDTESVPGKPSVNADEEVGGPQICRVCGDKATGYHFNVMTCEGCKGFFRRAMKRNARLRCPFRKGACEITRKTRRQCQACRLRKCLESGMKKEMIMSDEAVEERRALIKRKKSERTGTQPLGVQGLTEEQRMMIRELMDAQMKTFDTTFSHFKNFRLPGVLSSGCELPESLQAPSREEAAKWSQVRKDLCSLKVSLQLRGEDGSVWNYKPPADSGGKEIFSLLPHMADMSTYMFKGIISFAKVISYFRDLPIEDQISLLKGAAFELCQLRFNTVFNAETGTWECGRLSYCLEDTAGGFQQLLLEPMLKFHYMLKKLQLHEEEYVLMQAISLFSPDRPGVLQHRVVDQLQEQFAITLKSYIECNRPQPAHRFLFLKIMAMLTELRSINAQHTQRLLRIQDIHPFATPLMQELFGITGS

[3] = biological target: 11-beta-hydroxysteroid dehydrogenase 1 (Mus musculus, UniProt P50172); assay: Inhibition of mouse 11beta-HSD1 expressed in CHO-K1 cells assessed as conversion of [3H]cortisone to [3H]cortisol by scintillation counting; type: cell-based
[4] = biological target: T2, Nuclear receptor subfamily 1 group I member 2; assay: Agonist activity at PXR at 10 uM; type: functional
[5] = biological target: T3, 11-beta-hydroxysteroid dehydrogenase type 2 (Homo sapiens, UniProt P80365); assay: Inhibition of human 11beta-HSD2
T3 sequence (P80365 whole entry): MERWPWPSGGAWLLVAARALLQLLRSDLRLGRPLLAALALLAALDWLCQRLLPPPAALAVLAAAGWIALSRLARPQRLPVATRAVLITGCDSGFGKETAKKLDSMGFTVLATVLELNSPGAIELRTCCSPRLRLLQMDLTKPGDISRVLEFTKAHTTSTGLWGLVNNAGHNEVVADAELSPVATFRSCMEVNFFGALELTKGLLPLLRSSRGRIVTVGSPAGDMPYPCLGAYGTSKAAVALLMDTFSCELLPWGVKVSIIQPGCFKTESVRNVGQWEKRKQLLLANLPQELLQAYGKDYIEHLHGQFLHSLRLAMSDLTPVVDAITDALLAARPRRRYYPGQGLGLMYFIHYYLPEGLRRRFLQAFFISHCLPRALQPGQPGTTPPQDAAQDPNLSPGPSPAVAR

[6] = biological target: 11-beta-hydroxysteroid dehydrogenase 1 (Homo sapiens, UniProt P28845); assay: Inhibition of human 11beta-HSD1 expressed in CHO-K1 cells assessed as conversion of [3H]cortisone to [3H]cortisol by scintillation counting; type: cell-based
Mus musculus [7] = assay: Inhibition of 11beta-HSD1 in ICR mouse assessed as conversion of [3H]cortisone to [3H]cortisol at 10 mg/kg, po after 16 hrs by scintillation counting; type: functional
Mus musculus [8] = assay: Inhibition of 11beta-HSD1 in ICR mouse assessed as conversion of [3H]cortisone to [3H]cortisol at 10 mg/kg, po after 4 hrs by scintillation counting; type: functional

Sequence of 11-beta-hydroxysteroid dehydrogenase 1 (Mus musculus, UniProt P50172) (P50172 whole entry): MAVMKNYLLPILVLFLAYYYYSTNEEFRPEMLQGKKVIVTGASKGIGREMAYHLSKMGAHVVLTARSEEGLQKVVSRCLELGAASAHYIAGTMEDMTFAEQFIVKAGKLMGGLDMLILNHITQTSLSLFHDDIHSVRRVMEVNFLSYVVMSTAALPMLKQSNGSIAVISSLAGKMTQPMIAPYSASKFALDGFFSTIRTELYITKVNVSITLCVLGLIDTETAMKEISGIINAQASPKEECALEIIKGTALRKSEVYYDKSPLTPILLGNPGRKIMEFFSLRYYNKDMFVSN
Sequence of 11-beta-hydroxysteroid dehydrogenase 1 (Homo sapiens, UniProt P28845) (P28845 whole entry): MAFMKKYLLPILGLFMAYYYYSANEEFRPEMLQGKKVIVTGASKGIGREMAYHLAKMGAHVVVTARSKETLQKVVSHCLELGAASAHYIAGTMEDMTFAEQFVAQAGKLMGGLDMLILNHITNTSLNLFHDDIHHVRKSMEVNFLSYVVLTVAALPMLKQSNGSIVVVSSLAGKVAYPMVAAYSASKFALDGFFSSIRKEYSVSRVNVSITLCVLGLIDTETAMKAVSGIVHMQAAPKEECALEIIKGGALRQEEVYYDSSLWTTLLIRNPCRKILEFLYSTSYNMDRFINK

Row | SMILES | pIC50 [1] | pEC50 [2] | pIC50 [3] | Activity [4] [%] | pIC50 [5] | pIC50 [6] | inhibition in vivo at 10 mg/kg (Mus musculus [7]) [%] | inhibition in vivo at 10 mg/kg (Mus musculus [8]) [%]
1 | Cn1c(-c2ccc(C(=O)NC3CCC3)cc2)nnc1C1(c2ccc(Cl)cc2)CCC1 | < 5.40 | < 4.52 | 8.18 | 4 | < 5.40 | 6.33 | – | –
2 | COc1cc(-c2cccnc2)ccc1-c1nnc(C2(c3ccc(Cl)cc3)CCC2)n1C | < 5.40 | 5.34 | 9.12 | 65 | < 5.40 | 8.82 | 21 | 82
3 | Cn1c(-c2ccc(-c3cnccn3)cc2OC(F)F)nnc1C1(c2ccc(Cl)cc2)CCC1 | < 5.40 | < 4.52 | 9.00 | 45 | < 5.40 | 8.43 | 14 | 88
4 | Cn1c(-c2ccc(-c3cnccn3)cc2C(N)=O)nnc1C1(c2ccc(Cl)cc2)CCC1 | < 5.40 | < 4.52 | 7.17 | 4 | < 5.40 | 6.92 | – | –
5 | Cc1noc(C)c1-c1ccc(-c2nnc(C3(c4ccc(Cl)cc4)CCC3)n2C)cc1 | < 5.40 | < 4.52 | 8.47 | 26 | < 5.40 | 8.32 | 9 | 63
6 | CCNC(=O)c1ccc(-c2nnc(C3(c4ccc(Cl)cc4)CCC3)n2C)cc1 | < 5.40 | < 4.52 | 8.11 | 18 | < 5.40 | 7.16 | 0 | 71
7 | Cn1c(-c2ccc(NC(=O)c3cnccn3)cc2Cl)nnc1C1(c2ccc(Cl)cc2)CCC1 | < 5.40 | < 4.52 | 8.72 | 33 | < 5.40 | 8.59 | 46 | 82
8 | Cn1c(-c2ccc(NC(=O)c3ccno3)cc2)nnc1C1(c2ccc(Cl)cc2)CCC1 | < 5.40 | < 4.52 | 8.55 | 21 | < 5.40 | 8.10 | 11 | 69
9 | Cn1c(-c2ccc(-c3cccnc3)cc2Cl)nnc1C1(c2ccc(Cl)cc2)CCC1 | – | – | – | 35 | < 5.40 | – | – | –
10 | Cn1c(-c2ccc(C(=O)N3CCOCC3)cc2)nnc1C1(c2ccc(Cl)cc2)CCC1 | < 5.40 | < 4.52 | 6.70 | 16 | < 5.40 | 6.25 | – | –
11 | Cn1c(-c2ccc(C(N)=O)cc2)nnc1C1(c2ccc(Cl)cc2)CCC1 | < 5.40 | < 4.52 | 7.59 | 21 | < 5.40 | 9.00 | 4 | 35
12 | Cn1c(-c2ccc(N)cc2Cl)nnc1C1(c2ccc(Cl)cc2)CCC1 | – | < 4.52 | > 9.00 | 35 | 5.64 | – | 38 | 90
13 | Cn1c(-c2ccc(-c3ccccc3)cc2)nnc1C1(c2ccc(Cl)cc2)CCC1 | – | 5.77 | – | 90 | – | – | – | –
14 | Clc1ccc(C2(c3nnc4n3CCCCCC4)CCC2)cc1 | – | 5.80 | – | 100 | – | – | – | –
15 | Cn1c(-c2ccc(-c3cnc(O)nc3)cc2)nnc1C1(c2ccc(Cl)cc2)CCC1 | < 5.40 | < 4.52 | 8.54 | 9 | < 5.40 | 8.92 | – | –
